“And” between values parts separate entries of the source, which are not always exact repeats. Identical values can stand only once. Like-named read-outs stand apart in the source and are kept apart here. Peptide text beside a SMILES is read from it.
Experiments:
Assay type in all cases: binding
[1] = molecular target: T1, GST-Survivin120-K90/103T–CRM1 interaction (Homo sapiens, UniProt O15392, K103T/K90T); test: Pull-down with GST-Survivin120-K90/103T bait, CRM1 and RanQ69L; settings: for CRM1: Peak area determined with ImageJ / CRM1 intensity_normalised on GST-Surv intensity (samples 1-14) / CRM1: Control w/o GST-Survivin subtracted (sample 16 or 23): CRM1 band; for CRM1: Peak area determined with ImageJ / CRM1 intensity_normalised on GST-Surv intensity (samples 1-14) / CRM1: Control w/o GST-Survivin subtracted (sample 16 or 23) / CRM1 intensity_normalised on GST-Surv intensity (samples 1-14) and CRM1 intensity w/o incubation (sample 15 or 22): samples 22-28 (K90/103T); for CRM1: Control w/o GST-Survivin subtracted (sample 16 or 23): sample 23 subtracted; for GST-Surv: Peak area determined with ImageJ / GST-Surv: Control w/o GST-Survivin subtracted (sample 2 or 9): GST-Surv bait band; for GST-Surv: Peak area determined with ImageJ: samples 8-14 (K90/103T according to the summary in r39-r41); for GST-Surv: Control w/o GST-Survivin subtracted (sample 2 or 9): samples 8-14 (K90/103T), sample 9 subtracted; for Normalised CRM1 intensity, summary of replicates I and II: K90/103T, w/o tweezer = 100, replicates I and II
T1 construct: the only published NMR structure originated from a truncated Survivin (aa 1-120) with improved solubility; made in house; host or cells: Escherichia coli soluBL21
Description: Next, we investigated whether tweezer inhibition of the export complex assembly is compromised upon lysine mutations near the NES. Therefore, pull-down experiments were performed with recombinant GST-tagged Survivin120 wildtype and K90/103T as bait proteins, tweezers, recombinant CRM1 and RanQ69L (Fig. 7g). Controls lacking the Survivin baits were included, as well as isolated peptides without tweezer (Fig. 7h). […] However, for the double lysine mutant GST-Survivin120-K90/103T even the tweezer conjugates lost most of their inhibitory power toward the essential Survivin–CRM1 interaction.
All pull-down assays were performed at room temperature in pull-down buffer (PBS, pH 7.4, 1 mM DTT, 0.02 Triton X-100). GST fusion proteins were immobilized on 50 μL GSH-coated Sepharose 4B beads from GE Healthcare. The beads were prior equilibrated and blocked with 500 μL pull-down blocking buffer (PBS, pH 7.4, 1 (w/v) BSA, 1 mM DTT, 0.02 (v/v) Triton X-100) for 1 h to prevent unspecific binding.
For analysis of the effective inhibitory tweezer concentration, 200 μg 293T lysate with overexpressed Survivin142-HA was preincubated without ligand or with different concentrations (10 nM to 200 μM) of unmodified tweezer TW, TW-ELTL, TW-ELTLGEFL, or TW-LFEEGLLT for 1 h and then mixed with 35 μg GST-CRM1, 55 μg RanQ69L, and 2 mM dGTP. GSH-beads were incubated with this protein mixture for 2 h under rotation. For analysis of tweezer specificity, 40 μg GST-Survivin120 or GST-Survivin120-K90/103T point mutant was pre-bound to equilibrated GSH-beads in 500 μL pull-down buffer, containing additionally either no ligand or 50 μM unmodified tweezer TW, TW-ELTL, TW-ELTLGEFL, or peptides ELTL and ELTLGEFL, for 1 h under rotation. After washing and blocking, GSH-beads were incubated with a protein mixture consisting of 2 mM dGTP, 50 μg CRM1, and 50 μg RanQ69L for 2 h under rotation.
Samples of input and beads taken during pull-down experiments were ran on 12.5 SDS gels and transferred onto 0.2 µM PVDF membranes (Amersham Hybond P 0.2) using a PerfectBlue™ tank electro blotter (Peqlab) at 350 mA for 150 min. Membranes were blocked for 1 h using 5% milk powder in TBS buffer containing 0.1% Tween-20. Next, membranes were incubated in primary antibodies against HA (anti-HA, mouse monoclonal, BioLegend, Covance MMS-101R, 1:1,000), GST (anti-GST, mouse monoclonal, Santa Cruz Biotechnology Inc., sc-57753, 1:1000) or CRM1 (anti-CRM1, rabbit polyclonal, Novus Biologicals Ltd., NB100-79802, 1:10,000) overnight at 4 °C. Secondary horseradish peroxidase (HRP)-conjugated antibody (anti-mouse IgG-HRP, sheep, GE Healthcare, NXA931 or anti-rabbit IgG-HRP, donkey, GE Healthcare, NA934) was then added (1:10,000) for 1 h at room temperature. Chemiluminescence was detected and imaged using the Pierce ECL Plus Western Blotting Substrate kit (Thermo Fisher Scientific) and Chemidoc system (Bio-Rad) or film processor Cawomat 2000 IR (CAWO). Western blots were analyzed by densitometric analysis with ImageJ version 1.52p (U.S. National Institutes of Health), measuring the mean gray intensity of protein bands. Uncropped and unprocessed scans of western blots are deposited in the Source Data file.

[2] = molecular target: T2, Survivin120 (Homo sapiens, UniProt O15392); test: ITC titration of tweezers with Survivin120 wildtype; settings: ITC, Survivin120 WT; for Kd: PBS pH 7.4, 25 °C, one set of sites model, mean ± SEM of fit
T2 construct: the only published NMR structure originated from a truncated Survivin (aa 1-120) with improved solubility; GST with PreScission site (N); made in house; host or cells: Escherichia coli soluBL21
Description: The interaction between the tweezers and Survivin was studied by isothermal titration calorimetry (ITC) and NMR spectroscopy. So far, the only published NMR structure originated from a truncated Survivin (aa 1-120) with improved solubility. […] Since the truncated construct still contains all relevant parts of the protein and gives excellent NMR spectra (SI5), we chose it for all our in vitro experiments and denote it as Survivin120 in the following results.
(§1) ITC was performed with a MicroCal iTC200 from Malvern Panalytical in PBS, pH 7.4 at 25 °C with molecular tweezers in the cell and Survivin120 in the titration syringe. The protein was dialyzed overnight at 4 °C against the PBS buffer. Ligands were dissolved in the respective dialysis buffer. Then, 300 µM TW were titrated with 300 µM Survivin120 WT or 321 µM Survivin120 K90/103T. Then, 100 µM TW-ELTL, TW-ELTLGEFL, or TW-LFEEGLLT was titrated with 1.2 mM Survivin120 WT or 2.5 mM Survivin120 K90/103T. For reverse titrations, either 33.3 or 34.4 µM Survivin120 in the cell was titrated with 5 mM TW or TW-ELTL in the syringe, respectively. All titrations were performed in PBS, pH 7.4 at 25 °C. Then, 1.5 μL injections were used with 120 s spacing time between injections. The injection rate was set to 0.5 µL/s and the reference power was 5 µcal/s. ITC thermograms were fitted to a one set of sites model with the software Origin (v7.0552) provided with the instrument. Heat of dilution was subtracted as constant from each data point.
(§2) ITC thermograms were fitted to a one set of sites model with the software Origin provided with the instrument. Heat of dilution was subtracted as constant from each data point. From three independent experiments (n = 3), one representative example was depicted, and thermodynamic data were derived thereof. For pull-down experiments, only the representative quantification of the depicted western blot is shown. […] Fluorescence anisotropy graphs were generated with GraphPad Prism 5.0. Depicted error bars represent the standard deviation of three independent titrations.

[3] = molecular target: T3, Survivin120 K90/103T (Homo sapiens, UniProt O15392, K103T/K90T); test: ITC titration of tweezers with Survivin120 K90/103T mutant
T3 construct: the only published NMR structure originated from a truncated Survivin (aa 1-120) with improved solubility; GST with PreScission site (N); made in house; host or cells: Escherichia coli soluBL21
Excerpt: If the tweezer-based inhibitors indeed bind to lysines/arginines flanking the NES (K90, K91, K103, R106), their mutation to, e.g., threonine, should abolish the observed effects. For this reason, we generated double and triple Survivin120 mutants lacking these putative tweezer anchor points. Unfortunately, most double mutants and especially the triple mutants were unfolded as evidenced by 1D ^1H NMR (SI6); finally, the correctly folded double threonine mutant Survivin120 K90/103T was chosen for further investigation. […] Next, binding of FAM-labeled tweezers (SI3) to either Survivin120 wildtype or the K90/103T mutant was studied by fluorescence anisotropy (Fig. 7d–f). […] We conclude that lysines 90 and 103 are indeed essential for efficient tweezer binding.
as §1, §2

[4] = fraction of sample 22 (w/o tweezer)

T2 sequence (O15392 1-120): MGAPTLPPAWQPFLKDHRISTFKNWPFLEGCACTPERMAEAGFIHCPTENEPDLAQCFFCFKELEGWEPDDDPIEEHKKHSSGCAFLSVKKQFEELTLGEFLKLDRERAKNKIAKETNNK
T1 sequence (O15392 1-120 K90T/K103T): as the sequence (O15392 1-120) above, with K90T, K103T counted along it
T3 sequence (O15392 1-120 K90T/K103T): as the sequence (O15392 1-120) above, with K90T, K103T counted along it

Row | Compound | CRM1: Peak area determined with ImageJ [1] | CRM1 intensity_normalised on GST-Surv intensity (samples 1-14) [1] | CRM1: Control w/o GST-Survivin subtracted (sample 16 or 23) [1] | GST-Surv: Peak area determined with ImageJ [1] | GST-Surv: Control w/o GST-Survivin subtracted (sample 2 or 9) [1] | Normalised CRM1 intensity, summary of replicates I and II [1] | CRM1 intensity_normalised on GST-Surv intensity (samples 1-14) and CRM1 intensity w/o incubation (sample 15 or 22) [1, 4] | CRM1 intensity_normalised on GST-Surv intensity (samples 1-14) and CRM1 intensity w/o incubation (sample 15 or 22) ([1]; w/o tweezer = 100) [%] | -TΔS [2] [kcal] | ΔG [2] [kcal] | ΔH [2] [kcal] | Kd [2] [µM] | ΔH ([3]; ITC, Survivin120 K90/103T) [kcal] | Kd ([3]; ITC, Survivin120 K90/103T, PBS pH 7.4, 25 °C, one set of sites model, read-out: KD) [µM] | Kd [3] [µM]
1 | O=P(O)(O)Oc1c2c(c(OP(=O)(O)O)c3c1C1CC3c3cc4c(cc31)C1CC4c3ccccc31)C1CC2c2cc3c(cc21)C1CC3c2ccccc21 [TW, reference compound] | 39038.4 | 0.5728 | 34329.1 | 62533.1 | 59934 | 90.4067% | 0.9041 | 90.4067 | -4.7 | -6.0 | -1.3 | 38 | -0.6 | 49 ± 5 | 
2 | CC(C)C[C@H](NC(=O)[C@H](Cc1ccccc1)NC(=O)[C@H](CCC(=O)O)NC(=O)CNC(=O)[C@H](CC(C)C)NC(=O)[C@@H](NC(=O)[C@H](CC(C)C)NC(=O)[C@H](CCC(=O)O)NC(=O)Cn1cc(CCOP(=O)(O)Oc2c3c(c(OP(=O)(O)O)c4c2C2CC4c4cc5c(cc42)C2CC5c4ccccc42)C2CC3c3cc4c(cc32)C2CC4c3ccccc32)nn1)[C@@H](C)O)C(=O)O [TW-ELTLGEFL] (HELM PEPTIDE1{[O=C(Cn1cc(CCOP(=O)(O)Oc2c3c(c(OP(=O)(O)O)c4c2C2CC4c4cc5c(cc42)C2CC5c4ccccc42)C2CC3c3cc4c(cc32)C2CC4c3ccccc32)nn1)[*:2]].E.L.T.L.G.E.F.L}$$$$V2.0) |  |  |  |  |  | 109.825% and 111.087% |  | 109.825 |  |  |  | 19 |  |  | 36 ± 10
3 | CC(C)C[C@H](NC(=O)[C@@H](NC(=O)[C@H](CC(C)C)NC(=O)[C@H](CCC(=O)O)NC(=O)Cn1cc(CCOP(=O)(O)Oc2c3c(c(OP(=O)(O)O)c4c2[C@H]2C[C@@H]4c4cc5c(cc42)[C@H]2C[C@@H]5c4ccccc42)[C@H]2C[C@@H]3c3cc4c(cc32)[C@H]2C[C@@H]4c3ccccc32)nn1)[C@@H](C)O)C(=O)O [TW-ELTL] | 11197.5 | 0.3807 | 6488.31 | 19643.8 | 17044.7 | 60.0833% | 0.6008 | 60.0833 | -3.8 | -6.3 | -2.5 | 24 | -1.3 |  | 50 ± 10
